How the values were obtained:
[1] = Potentiometric titrations, protonation constants; type: physicochemical; conditions: 0.15 M NaCl, 298.1 K
Protocol: FEM measurements. Potentiometric titrations were conducted at 298.1 ± 0.1 K using 0.15 M NaCl as the support electrolyte. The experimental procedure (burette, potentiometer, cell, stirrer, microcomputer, etc.) has been fully described elsewhere (E. García-Spain, M.-J. Ballester, F. Lloret, J.M. Moratal, J. Faus and A. Bianchi, J. Chem. Soc. Dalton Trans. 1988, 101-104). The FEM data acquisition was performed with the PASAT software (M. Fontanelli and M. Micheloni, Program for the automatic control of the microburette and the acquisition of the electromotor force readings (PASAT). Minutes of the 1st Spanish-Italian Congress of Thermodynamics of Metal Complexes, Peñíscola, Castellón, Spain, 1990). The reference electrode was an Ag/AgCl electrode in saturated KCI solution. The glass electrode was calibrated as a hydrogen ion concentration probe by titration of previously standardised amounts of HCl with CO2 free NaOH solutions and the equivalent point determined by Gran’s method ((a) G. Gran, Analyst 1952, 77, 661 -671; (b) F.J. Rossotti and H. Rossotti, J. Chem. Educ. 1965, 42, 375-378) providing the standard potential, Eº’, and the ionic product of water (pKw = 13.73 (1)).
Hyperquad software was used to calculate protonation and stability constants (P. Gans, A. Sabatini and A. Vacca, Talanta 1996, 43, 1739-1753). The pH range investigated was 2.5-11.0 and the concentration of the ligands varied from 1×10^-3 to 5×10^-3 M. The different titration curves for each system (at least two) were treated as a single set or as separate curves without significant variations in the values of the stability constants. Finally, the data sets were fused and treated simultaneously to give the final protonation constants (Table 1). For compounds 1, 7 and 9, two protonation constants have been detected in the pH range studied with values ranging from 5.51 to 9.68 logarithmic units. For the remaining compounds, three protonation constants have been measured with values ranging from 10.08 to 2.25 logarithmic units. All compounds have charge +1 at the physiological pH value of 7.4.

[2] = system: L. infantum promastigote forms; assay: In vitro activity against extracellular (promastigote) forms; type: cell-based, Leishmania infantum; conditions: for IC50: Leishmania infantum, 72 h; for Selectivity Index (SI) L. infantum Promastigote forms: IC50 of macrophages / IC50 of parasite form
Description: (§1) Methodology: Cultures of three Leishmania species, representative of the species causing each of the clinical forms of the disease, were used for these studies. Specifically, strains MCAN/ES/2001/UCM-1 O of L.infantum, isolated and characterised in Madrid from an infected dog; MHOM/BR/1975/M2904 of L.braziliensis, isolated in Brazil in a human case, and LCR-L 133 LRC of L.donovani. isolated in Jerusalem, Israel from a case of kala-azar […] (WHO Technical Reports Series 949. Geneva: WHO. March. The cultures of parasites come from an own collection which was prepared from a biobank project (Biobank and Characterisation Unit of Strains and Species of Trypanosomatids, Responsible for Human, Animal and Plant Pathologies, Cgl-2008-03687-E/Bos.), and are available on request.
(§2) The promastigote forms of the three species studied were cultured in vitro in sterility in single-phase MTL culture medium (Medium Trypanosomes Liquid) made from Hank’s Balanced Salts (Sigma-Aldrich, H6136) enriched with 10% (v/v) of Fetal Bovine Serum (SBF-1) inactivated at 56° C./ 30 minutes. The parasite inoculum to initiate the culture was 5 × 10^4 cells/ml in 5 ml medium in 25 cm^2 Falcon® plastic flasks and kept in an oven at 28° C. The cultures were performed routinely, achieving exponential growth of the flagellates until obtaining the cell mass necessary for the subsequent studies. Both promastigote forms and amastigote forms were used to conduct the assays.
(§3) The promastigote forms of the three Leishmania strains, cultured in the manner described above, were harvested in their exponential growth phase by centrifugation at 400 g for 10 min. The number of parasites was counted in a Neubauer Haemocytometer Counting Chamber and were inoculated in a 24-well plate at a concentration of 5 ×10^4 parasites/well.
(§4) The compounds to be assayed were dissolved in DMSO at a concentration of 0.01% (v/v), concentration at which this solvent is not toxic nor has any effect on the growth of parasites. The compounds were added to the culture medium at final concentrations of 100, 50, 25 and 12.5 µM. […] M. et al. Med. Chem. 2011. 54. 970-979].

[3] = system: L. infantum amastigote forms; assay: In vitro activity against intracellular (amastigote) forms in macrophages; type: cell-based, Leishmania infantum; conditions: for IC50: Leishmania infantum, Macrophage, 72 h; for Selectivity Index (SI) L. infantum Amastigote forms: IC50 of macrophages / IC50 of parasite form
Description: as §1
(§5) For the study of the in vitro effect on intracellular forms of Leishmania, the experimental model designed by the group of the present inventors was used [Sánchez-Moreno. M. et al. Med. Chem. 2012, 55, 9900-9913; Sánchez-Moreno. M. et al. J. Antimicrob. Chemother. 2012, 67, 387-397]. The macrophages were detached from the culture flask where they were attached by dry blows. To do this, it was incubated in cold for 5 minutes and after that the flask was hit with the palm of the hand until the cells were detached from the flask. Then, they were passed to a 25 ml capacity steriling conical bottom flask (Deltalab) to centrifuge them at 120 g for 5 minutes, removing the supernatant and were counted in Neubauer’s chamber. Cells were suspended in RPMI medium at a concentration of 1×10^4 cells/well, then cultured in 24-well plates into which a 12 mm round slide had previously been placed into each well. For adherence, the cells were left 24 h at 37° C. in 5% CO2. Subsequently, the cells were infected in vitro by placing Leishmania cells at the rate of 10 parasites/macrophage according to [Sánchez-Moreno. M et al. Med. Chem. 2011, 54, 970-979]. […] The products were allowed to act for 72 hours of incubation.
(§6) After that time, the crystals were removed and fixed with methanol on a slide and allowed to dry, after which DPX microscopy mounting medium (Panreac®) was added to it. Once the preparations had been mounted, they were dyed with Giemsa by diluting Azur-Eosin-Methylene Blue solution according to Giemsa DC (Code 251338) with Sorensen buffer (1:10 dilution). The preparations were covered and allowed to colour for 20 minutes, after which they were washed with distilled water and then allowed to drain and dry vertically. Finally, the amastigote forms were counted with the aim of immersion in a total of 200 cells.

[4] = system: L. braziliensis promastigote forms; assay: In vitro activity against extracellular (promastigote) forms; type: cell-based, Leishmania braziliensis; conditions: for Selectivity Index (SI) L. brazilensis Promastigote forms: IC50 of macrophages / IC50 of parasite form; for IC50: Leishmania braziliensis, 72 h
Description: as §1, §2, §3, §4

[5] = system: L. braziliensis amastigote forms; assay: In vitro activity against intracellular (amastigote) forms in macrophages; type: cell-based, Leishmania braziliensis; conditions: for Selectivity Index (SI) L. brazilensis Amastigote forms: IC50 of macrophages / IC50 of parasite form; for IC50: Leishmania braziliensis, Macrophage, 72 h
Description: as §1, §5, §6

[6] = system: L. donovani promastigote forms; assay: In vitro activity against extracellular (promastigote) forms; type: cell-based, Leishmania donovani; conditions: for Selectivity Index (SI) L. donvovani Promastigote forms: IC50 of macrophages / IC50 of parasite form; for IC50: Leishmania donovani, 72 h
Description: as §1, §2, §3, §4

[7] = system: L. donovani amastigote forms; assay: In vitro activity against intracellular (amastigote) forms in macrophages; type: cell-based, Leishmania donovani; conditions: for Selectivity Index (SI) L. donvovani Amastigote forms: IC50 of macrophages / IC50 of parasite form; for IC50: Leishmania donovani, Macrophage, 72 h
Description: as §1, §5, §6

CN(C)CCNCc1cccnc1 [Compound 5, 1-{3-pyridyl}-5-methyl-2,5-diazahexane]
Log β [1]: 17.98(1)
Logarithm of the protonation constant H2L+H ⇌ H3L [1]: 3.16(1)
Logarithm of the protonation constant H+L ⇌ HL [1]: 9.18(1)
Logarithm of the protonation constant HL+H ⇌ H2L [1]: 5.63(1)
IC50 [2]: 9.2 ± 0.7 µM
IC50 [3]: 10 ± 0.8 µM
Selectivity Index (SI) L. brazilensis Promastigote forms [4]: 14
IC50 [4]: 16.7 ± 0.5 µM
Selectivity Index (SI) L. brazilensis Amastigote forms [5]: 11
IC50 [5]: 20 ± 2 µM
Selectivity Index (SI) L. donvovani Promastigote forms [6]: 11
IC50 [6]: 21.7 ± 1.6 µM
Selectivity Index (SI) L. donvovani Amastigote forms [7]: 13
IC50 [7]: 17.6 ± 0.7 µM

CN(C)CCNCc1ccncc1 [Compound 6]
Log β [1]: 17.22 (1)
Logarithm of the protonation constant H2L+H ⇌ H3L [1]: 2.956(6)
Logarithm of the protonation constant H+L ⇌ HL [1]: 8.865(3)
Logarithm of the protonation constant HL+H ⇌ H2L [1]: 5.407(3)
Selectivity Index (SI) L. infantum Promastigote forms [2]: 8
IC50 [2]: 63.3 ± 1.5 µM
Selectivity Index (SI) L. infantum Amastigote forms [3]: 21
IC50 [3]: 23.6 ± 1.7 µM
Selectivity Index (SI) L. brazilensis Promastigote forms [4]: 9
IC50 [4]: 52.5 ± 5.1 µM
Selectivity Index (SI) L. brazilensis Amastigote forms [5]: 17
IC50 [5]: 29.7 ± 2.5 µM
Selectivity Index (SI) L. donvovani Promastigote forms [6]: 7
IC50 [6]: 67.9 ± 5.3 µM
IC50 [7]: 11.5 ± 1.3 µM

CN(C)CCNCc1ccc2ccccc2n1 [Compound 7]
Log β [1]: 14.63 (1)
Logarithm of the protonation constant H+L ⇌ HL [1]: 9.17(1)
Logarithm of the protonation constant HL+H ⇌ H2L [1]: 5.45(1)
Selectivity Index (SI) L. infantum Promastigote forms [2]: 5
IC50 [2]: 84.4 ± 5.1 µM
Selectivity Index (SI) L. infantum Amastigote forms [3]: 9
IC50 [3]: 49.7 ± 3.6 µM
Selectivity Index (SI) L. brazilensis Promastigote forms [4]: 4
IC50 [4]: 105 ± 11.6 µM
Selectivity Index (SI) L. brazilensis Amastigote forms [5]: 11
IC50 [5]: 38.9 ± 2.7 µM
Selectivity Index (SI) L. donvovani Promastigote forms [6]: 8
IC50 [6]: 56.9 ± 2.7 µM
Selectivity Index (SI) L. donvovani Amastigote forms [7]: 11
IC50 [7]: 38.9 ± 3.2 µM

CN(C)CCNCc1ccnc2ccccc12 [Compound 8, 1-{4-quinolyl)-5-methyl-2,5-diazahexane]
Log β [1]: 18.99(2)
Logarithm of the protonation constant H2L+H ⇌ H3L [1]: 3.32(1)
Logarithm of the protonation constant H+L ⇌ HL [1]: 10.08(1)
Logarithm of the protonation constant HL+H ⇌ H2L [1]: 5.59(1)
Selectivity Index (SI) L. infantum Promastigote forms [2]: 2 (2)
IC50 [2]: 14.1 ± 0.6 µM
Selectivity Index (SI) L. infantum Amastigote forms [3]: 2
IC50 [3]: 11.5 ± 0.8 µM
Selectivity Index (SI) L. brazilensis Promastigote forms [4]: 2
IC50 [4]: 13.8 ± 0.7 µM
Selectivity Index (SI) L. brazilensis Amastigote forms [5]: 1
IC50 [5]: 16.8 ± 1.1 µM
Selectivity Index (SI) L. donvovani Promastigote forms [6]: 2 (2)
IC50 [6]: 12.8 ± 0.6 µM
Selectivity Index (SI) L. donvovani Amastigote forms [7]: 2
IC50 [7]: 10.6 ± 0.6 µM

From patent publication US20230346769A1, “USE OF SIMPLE ACYCLIC POLYAMINES FOR THE TREATMENT OF DISEASES CAUSED BY PARASITES OF THE GENUS LEISHMANIA” (Universidad De Granada, priority 2020, published 2023)
